The text below walks through data of patent US4600780A, “N-cyano-formamidines” (Ferrer International, S.A., priority 1983, dated 1986).

A word on the ED50: it is the dose that gives a 50% effect, or the effect in half of the subjects.

The experiment deals with T1, histamine H2 -receptors (Rattus norvegicus, UniProt P25102).
T1 construct: from tissue; host or cells: stomach of living anaesthetized Sprague-Dawley rats (in vivo perfusion)
The experiment is described as follows: Blocking activity of histamine H2-receptors: inhibition of histamine-induced perfusate pH decrease (gastric acid secretion) in perfused stomach of anaesthetized rats. In kind it is in vivo, Sprague-Dawley albino male rats. The settings on record: for ED50: rat, iv, anaesthetized rats, perfused stomach, histamine 0.325 μmols/kg/min, test drugs via femoral veins, read-out: ED50 (inhibition rate of maximal pH decrease in relation to initial pH); for times more active than Cimetidine, according to ED50 values: ratio of ED50 values to Cimetidine (Table 1). How it is done: The blocking activity of histamine H2 -receptors was tested in Sprague-Dawley albino male rats weighing 350-450 g. Animals subject to 18-hour fasting were anaesthetized with urethane (1.5 g/kg i.p.), after which a longitudinal incision was performed on the abdominal wall, and pylorus and esophagus were cannulated for subject perfusion. In addition, femoral veins were cannulated for administration of test drugs and histamine solution.
The animals' stomachs were perfused with 1/8000N NaOH diluted solution at a rate of 2 ml/min. The perfusion liquid was then circulated through a 3 ml-volume chamber provided with a pH meter electrode. After calibrating the pH, histamine was perfused at 0.325 μmols/kg/min. The histamine perfusion caused a decrease of the perfusion liquid pH, which was inhibited by the compounds of the present invention.

Where a name gives a salt, the structure may show the parent alone.

T1 sequence (P25102 whole entry, the tested form may be a part): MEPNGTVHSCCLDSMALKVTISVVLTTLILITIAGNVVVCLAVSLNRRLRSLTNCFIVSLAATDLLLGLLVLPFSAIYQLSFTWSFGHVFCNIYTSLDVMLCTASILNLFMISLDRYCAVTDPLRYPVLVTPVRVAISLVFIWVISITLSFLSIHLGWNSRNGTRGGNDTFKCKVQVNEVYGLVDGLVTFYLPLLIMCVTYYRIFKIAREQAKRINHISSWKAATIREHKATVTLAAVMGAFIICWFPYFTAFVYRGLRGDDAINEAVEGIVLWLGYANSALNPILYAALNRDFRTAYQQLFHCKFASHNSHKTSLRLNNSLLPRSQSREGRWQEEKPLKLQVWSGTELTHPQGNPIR

As for `CN/C(=N/CCSCc1nc[nH]c1C)NC#N` [Cimetidine, reference compound], the ED50 is 5.6 µmol/kg.
In the case of `N#CN=CNCCSCc1csc(NC(=N)N)n1` [Example 3, N-cyano-N'-[2-[[[2-[(aminoiminomethyl)amino]-4-thiazolyl]methyl]thio]ethyl]formamidine maleate acid], the 50% effective dose (ED50) was 2.17 µmol/kg and the “times more active than Cimetidine, according to ED50 values” is 2.6 times.
In the same order, the values of `N#CN=CNCCCOc1cccc(CN2CCCCC2)c1` [Example 4, N-cyano-N'-[3-[3-(1-piperidinylmethyl)phenoxy]propyl]formamidine hydrochloride] are 3.2 µmol/kg and 1.8 times.
